Where two headings read alike, the source gives them in different places.
What was measured:
hNAMPT protein = hNAMPT protein (Homo sapiens (Human), UniProt P43490); experiment: NAMPT enzyme assay (TR-FRET/HTRF, BodiPY ligand, anti 6His-Tb); assay type: binding; conditions: for IC50: NAMPT IC50 range class, read-out: IC50; for inhibition at 1 µM: read-out: Percent Inhibition
In short: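 TR-FRET binding assay in which His-tagged human NAMPT with anti-6His-Tb is displaced by compound from a BodiPY ligand, incubated 1 h at rt in the dark. Excitation was at 320 nm, with the 520/486 nm emission ratio read. IC50 was fitted from inhibition relative to DMSO controls.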

PC3 cells = experiment: PC3 growth inhibition (Cell-titer glo, 72 hours); assay type: cell-based; conditions: Homo sapiens, read-out: Percent Inhibition (PC3 growth inhibition); for inhibition at 1.667 µM: compound concentration 1.667 μM
In short: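 PC3 cells in RPMI1640 seeded overnight at 37 °C, 5% CO2, then exposed to compound diluted in AIM serum-free medium for 72 h. Viability by CellTiter-Glo luminescence vs DMSO controls; single-concentration % remaining viability (1 μM or 1.667 μM), or GI50/LD50 from curves.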

[1] = PC-3, compound concentration 1 μM, PC3 cells, 72 hours, Cell-titer glo
[2] = PC-3, PC3 cells, 72 hours, Cell-titer glo

hNAMPT protein, sequence (P43490 whole entry): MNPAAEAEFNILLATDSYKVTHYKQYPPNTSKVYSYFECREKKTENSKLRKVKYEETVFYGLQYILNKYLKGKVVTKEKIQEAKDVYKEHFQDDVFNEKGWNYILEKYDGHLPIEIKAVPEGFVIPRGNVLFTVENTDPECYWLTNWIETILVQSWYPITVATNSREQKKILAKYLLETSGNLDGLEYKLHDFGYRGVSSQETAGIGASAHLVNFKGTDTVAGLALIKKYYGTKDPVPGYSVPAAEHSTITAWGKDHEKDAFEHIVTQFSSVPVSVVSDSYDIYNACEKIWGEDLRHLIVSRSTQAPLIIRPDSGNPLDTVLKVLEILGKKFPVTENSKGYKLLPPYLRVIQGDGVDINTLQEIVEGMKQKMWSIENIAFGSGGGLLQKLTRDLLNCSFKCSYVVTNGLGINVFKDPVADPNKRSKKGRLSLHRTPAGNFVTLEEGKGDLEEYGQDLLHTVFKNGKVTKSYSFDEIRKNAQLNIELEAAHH

Row | SMILES | IC50 (hNAMPT protein) [µM] | inhibition at 1 µM (hNAMPT protein; compound concentration 1 μM) [%] | inhibition at 1 µM (PC3 cells; [1]) [%] | inhibition at 1 µM (hNAMPT protein) [%] | inhibition at 1.667 µM (PC3 cells; [2]) [%] | inhibition at 1 µM (PC3 cells; PC-3, 72 h) [%]
1 | CN1CCN(c2nc3ccc(C(=O)NCCCn4ccnc4)cc3nc2-c2ccccc2)CC1 [Compound I-128, N-[3-(1H-imidazol-1-yl)propyl]-2-(4-methylpiperazin-1-yl)-3-phenylquinoxaline-6-carboxamide] | 0.5 to 1 | 60 | -7 | – | – | –
2 | CS(=O)(=O)N1CCN(c2nc3cc(C(=O)NCCCn4ccnc4)ccc3nc2-c2ccccc2)CC1 [Compound I-129, N-[3-(1H-imidazol-1-yl)propyl]-3-[4-(methylsulfonyl)piperazin-1-yl]-2-phenylquinoxaline-6-carboxamide] | 0.1 to 0.5 | 70 | -6 | – | – | –
3 | O=C(NCCc1ccccn1)c1ccc2nc(N3CCC(C4CCNCC4)CC3)c(-c3ccccc3)nc2c1 [Compound I-130, 2-(4,4′-Bipiperidin-1-yl)-3-phenyl-N-[2-(pyridin-2-yl)ethyl]quinoxaline-6-carboxamide] | 0.1 to 0.5 | – | 93 | 81 | – | –
4 | N#Cc1ccc(-c2nc3ccc(C(=O)NCCCn4ccnc4)cc3nc2-c2ccccc2)cc1 [Compound I-131, 2-(4-cyanophenyl)-N-[3-(1H-imidazol-1-yl)propyl]-3-phenylquinoxaline-6-carboxamide] | 0.5 to 1 | 64 | -8 | – | – | –
5 | O=C(NCc1ccc2[nH]cnc2c1)c1ccc2nc(N3CCOCC3)c(-c3ccc(F)cc3)nc2c1 [Compound I-132, N-(1H-Benzimidazol-5-ylmethyl)-3-(4-fluorophenyl)-2-(morpholin-4-yl)quinoxaline-6-carboxamide] | 0.5 to 1 | – | – | 56 | 2 | –
6 | O=C(NCc1ccc2cn[nH]c2c1)c1ccc2nc(N3CCCCC3)c(-c3ccc(F)cc3)nc2c1 [Compound I-133, 3-(4-fluorophenyl)-N-(1H-indazol-6-ylmethyl)-2-(piperidin-1-yl)quinoxaline-6-carboxamide] | 0.1 to 0.5 | 68 | – | – | 3 | –
7 | COc1cccc(-c2nc3ccc(C(=O)NCCc4ncc[nH]4)cc3nc2-c2cccc(OC)c2)c1 [Compound I-134, N-[2-(1H-imidazol-2-yl)ethyl]-2,3-bis(3-methoxyphenyl)quinoxaline-6-carboxamide] | 0.5 to 1 | 65 | -3 | – | – | –
8 | CC(=O)Nc1ccccc1-c1nc2cc(C(=O)NCCCn3ccnc3)ccc2nc1-c1ccccc1 [Compound I-135, 3-(2-acetamidophenyl)-N-[3-(1H-imidazol-1-yl)propyl]-2-phenylquinoxaline-6-carboxamide] | 2 to 10 | 16 | 101 | – | – | –
9 | O=C(NCCCn1ccnc1)c1ccc2nc(N3CCC(N4CCCC4=O)CC3)c(-c3ccccc3)nc2c1 [Compound I-136, N-[3-(1H-imidazol-1-yl)propyl]-2-[4-(2-oxopyrrolidin-1-yl)piperidin-1-yl]-3-phenylquinoxaline-6-carboxamide] | 0.1 to 0.5 | 83 | -7 | – | – | –
10 | O=C(NCCCn1ccnc1)c1ccc2nc(N3CCC3)c(-c3ccccc3)nc2c1 [Compound I-137, 2-(Azetidin-1-yl)-N-[3-(1H-imidazol-1-yl)propyl]-3-phenylquinoxaline-6-carboxamide] | 2 to 10 | – | – | 18 | – | 6
11 | O=C(NCCCc1cncnc1)c1ccc2nc(N3CCCCC3)c(-c3ccc(F)cc3)nc2c1 [Compound I-138, 3-(4-fluorophenyl)-2-(piperidin-1-yl)-N-[3-(pyrimidin-5-yl)propyl]quinoxaline-6-carboxamide] | 0.1 to 0.5 | 86 | – | – | > 99 | –
12 | O=C(NCCn1nnnc1S)c1ccc2nc(-c3ccc(F)cc3)c(-c3ccc(F)cc3)nc2c1 [Compound I-139, 2,3-bis(4-fluorophenyl)-N-[2-(5-sulfanyl-1H-tetrazol-1-yl)ethyl]quinoxaline-6-carboxamide] | 1 to 2 | 41 | 99 | – | – | –
13 | O=C(NCCCn1ccnc1)c1ccc2nc(-c3ccc4c(c3)CCO4)c(-c3ccccc3)nc2c1 [Compound I-140, 2-(2,3-dihydro-1-benzofuran-5-yl)-N-[3-(1H-imidazol-1-yl)propyl]-3-phenylquinoxaline-6-carboxamide] | 0.1 to 0.5 | 79 | -8 | – | – | –
14 | O=C(NCCCn1ccnc1)c1ccc2nc(C3=CCOCC3)c(-c3ccccc3)nc2c1 [Compound I-141, 2-(3,6-dihydro-2H-pyran-4-yl)-N-[3-(1H-imidazol-1-yl)propyl]-3-phenylquinoxaline-6-carboxamide] | 0.1 to 0.5 | 74 | -8 | – | – | –
15 | N#Cc1nc2ccc(C(=O)NCCCn3ccnc3)cc2nc1-c1ccccc1 [Compound I-142, 2-Cyano-N-[3-(1H-imidazol-1-yl)propyl]-3-phenylquinoxaline-6-carboxamide] | 2 to 10 | – | 95 | 24 | – | –
16 | Cn1cnc2cc(-c3nc4cc(C(=O)NCCCn5ccnc5)ccc4nc3-c3ccccc3)ccc21 [Compound I-143, N-[3-(1H-imidazol-1-yl)propyl]-3-(1-methyl-1H-benzimidazol-5-yl)-2-phenylquinoxaline-6-carboxamide] | 2 to 10 | 3 | 103 | – | – | –
17 | O=C(NCCCn1ccnc1)c1ccc2nc(-c3ccccc3)c(N3CCOCC3)nc2c1 [Compound I-144, N-[3-(1H-imidazol-1-yl)propyl]-3-(morpholin-4-yl)-2-phenylquinoxaline-6-carboxamide] | 1 to 2 | 43 | 2 | – | – | –
18 | NS(=O)(=O)c1ccc(-c2nc3ccc(C(=O)NCCCn4ccnc4)cc3nc2-c2ccccc2)cc1 [Compound I-145, N-[3-(1H-imidazol-1-yl)propyl]-3-phenyl-2-(4-sulfamoylphenyl)quinoxaline-6-carboxamide] | 0.1 to 0.5 | 76 | -7 | – | – | –
19 | O=C(NCCCn1ccnc1)c1ccc2nc(N3CCN4CCCC4C3)c(-c3ccccc3)nc2c1 (stereo not drawn) [Compound I-146, 2-(hexahydropyrrolo[1,2-a]pyrazin-2(1H)-yl)-N-[3-(1H-imidazol-1-yl)propyl]-3-phenylquinoxaline-6-carboxamide] | 0.1 to 0.5 | 76 | -7 | – | – | –
20 | O=C(NCc1ccc2nccn2c1)c1ccc2nc(N3CCOCC3)c(-c3ccc(F)cc3)nc2c1 [Compound I-147, 3-(4-fluorophenyl)-N-(imidazo[1,2-a]pyridin-6-ylmethyl)-2-(morpholin-4-yl)quinoxaline-6-carboxamide] | < 0.1 | 95 | – | – | 2 | –
21 | CC(C)(C)OC(=O)NCc1ccc(-c2nc3ccc(C(=O)NCCCn4ccnc4)cc3nc2-c2ccccc2)cc1 [Compound I-148, tert-Butyl [4-(6-{[3-(1H-imidazol-1-yl)propyl]carbamoyl}-3-phenylquinoxalin-2-yl)benzyl]carbamate] | 0.1 to 0.5 | – | 1 | 85 | – | –
22 | O=C(NCCCn1ccnc1)c1ccc2nc(-c3ccc4[nH]ccc4c3)c(-c3ccccc3)nc2c1 [Compound I-149, N-[3-(1H-imidazol-1-yl)propyl]-2-(1H-indol-5-yl)-3-phenylquinoxaline-6-carboxamide] | 0.1 to 0.5 | 86 | -8 | – | – | –

Reference: patent US10144742B2 (Millennium Pharmaceuticals, Inc., priority 2014, dated 2018)
